Target: T1, full length active recombinant SYK enzyme (Homo sapiens, UniProt P43405)
T1 construct: full length active recombinant SYK enzyme (Millipore, Calif.); purchased Millipore
Experiment: Inhibition of Syk tyrosine phosphorylation activity (LANCE TR-FRET kinase assay)
Format: biochemical
Method in brief: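 Full-length active recombinant SYK (1 nM) phosphorylated biotinylated SYK-specific peptide (550 nM) with 100 μM ATP in 50 mM Tris pH 7.5, 5 mM MgCl2, 1 mM DTT, 3% DMSO, 1 h at room temperature. EDTA quench with Eu-anti-phosphotyrosine and SA-APC, 1 h TR-FRET read; IC50 by non-linear regression.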

IC50 [nM]	SMILES
> 1000	NC(=O)c1c(NC2CCC2)nc(Nc2ccc(S(N)(=O)=O)cc2)[nH]c1=O [Example 45, 4-(cyclobutylamino)-6-oxo-2-(4-sulfamoylphenylamino)-1,6-dihydropyrimidine-5-carboxamide]
10 to 100	CC(C)[C@@H](Nc1nc(Nc2cccc(-c3ncccn3)c2)c(C(N)=O)c(=O)[nH]1)C(N)=O [Example 28, (R)-2-(1-amino-3-methyl-1-oxobutan-2-ylamino)-6-oxo-4-(3-(pyrimidin-2-yl)phenylamino)-1,6-dihydropyrimidine-5-carboxamide]
1 to 10	C[C@H](N)CNc1nc(Nc2ccc3ncccc3c2)c(C(N)=O)c(=O)[nH]1 [Example 51, (S)-2-(2-aminopropylamino)-6-oxo-4-(quinolin-6-ylamino)-1,6-dihydropyrimidine-5-carboxamide]
1 to 10	Cc1cccc(Nc2nc(N[C@@H](C(N)=O)C(C)C)[nH]c(=O)c2C(N)=O)c1 [Example 10, (R)-2-(1-amino-3-methyl-1-oxobutan-2-ylamino)-6-oxo-4-(m-tolylamino)-1,6-dihydropyrimidine-5-carboxamide]
1 to 10	CC(C)C[C@@H](Nc1nc(Nc2ccc3cccnc3c2)c(C(N)=O)c(=O)[nH]1)C(N)=O [Example 107, (R)-2-(1-amino-4-methyl-1-oxopentan-2-ylamino)-6-oxo-4-(quinolin-7-ylamino)-1,6-dihydropyrimidine-5-carboxamide]
1 to 10	CC(C)C[C@@H](Nc1nc(Nc2cccc(-c3ncccc3F)c2)c(C(N)=O)c(=O)[nH]1)C(N)=O [Example 80, (R)-2-(1-amino-4-methyl-1-oxopentan-2-ylamino)-6-oxo-4-(3-(3-fluoropyridin-2-yl)phenylamino)-1,6-dihydropyrimidine-5-carboxamide]
1 to 10	CC[C@@H](Nc1nc(Nc2cccc(OC(F)(F)F)c2)c(C(N)=O)c(=O)[nH]1)C(N)=O [Example 102, (R)-2-(1-amino-1-oxobutan-2-ylamino)-4-(3-(trifluoromethoxy)phenylamino)-6-oxo-1,6-dihydropyrimidine-5-carboxamide]
100 to 1000	COc1nc(N[C@H](CC(C)C)C(N)=O)nc(Nc2cc(C)cc(C)c2)c1C(N)=O [Example 67, (R)-2-(1-amino-4-methyl-1-oxopentan-2-ylamino)-4-(3,5-dimethylphenylamino)-6-methoxypyrimidine-5-carboxamide]
1 to 10	CC(C)C[C@@H](Nc1nc(Nc2cccc(-n3ccnc3)c2)c(C(N)=O)c(=O)[nH]1)C(N)=O [Example 118, (R)-2-(1-amino-4-methyl-1-oxopentan-2-ylamino)-4-(3-(1H-imidazol-1-yl)phenylamino)-6-oxo-1,6-dihydropyrimidine-5-carboxamide]
10 to 100	COc1nc(N[C@@H](C(N)=O)C(C)C)nc(Nc2cc(C)cc(C)c2)c1C(N)=O [Example 1, (R)-2-(1-amino-3-methyl-1-oxobutan-2-ylamino)-4-(3,5-dimethylphenylamino)-6-methoxypyrimidine-5-carboxamide]
1 to 10	CC(C)C[C@@H](Nc1nc(Nc2ccc(-c3cccnc3)cc2)c(C(N)=O)c(=O)[nH]1)C(N)=O [Example 106, (R)-2-(1-amino-4-methyl-1-oxopentan-2-ylamino)-6-oxo-4-(4-(pyridin-3-yl)phenylamino)-1,6-dihydropyrimidine-5-carboxamide]
1 to 10	CC[C@@H](Nc1nc(Nc2cccc(OC)c2)c(C(N)=O)c(=O)[nH]1)C(N)=O [Example 39, (R)-2-(1-amino-1-oxobutan-2-ylamino)-4-(3-(methoxy)phenylamino)-6-oxo-1,6-dihydropyrimidine-5-carboxamide]
< 1	CC(C)C[C@@H](Nc1nc(Nc2ccc3ncsc3c2)c(C(N)=O)c(=O)[nH]1)C(N)=O [Example 29]
100 to 1000	COc1nc(N[C@@H](C(N)=O)c2ccccc2)nc(Nc2cc(C)cc(C)c2)c1C(N)=O [Example 72, (R)-2-(2-amino-2-oxo-1-phenylethylamino)-4-(3,5-dimethylphenylamino)-6-methoxypyrimidine-5-carboxamide]
1 to 10	COc1ccc(Nc2nc(N[C@H](CC(C)C)C(N)=O)[nH]c(=O)c2C(N)=O)cc1 [Example 89, (R)-2-(1-amino-4-methyl-1-oxopentan-2-ylamino)-4-(4-methoxyphenylamino)-6-oxo-1,6-dihydropyrimidine-5-carboxamide]
1 to 10	CC(C)[C@@H](Nc1nc(Nc2cccc(-n3cccn3)c2)c(C(N)=O)c(=O)[nH]1)C(N)=O [Example 33]
< 1	CC[C@@H](Nc1nc(Nc2ccc3ncsc3c2)c(C(N)=O)c(=O)[nH]1)C(N)=O [Example 31]
1 to 10	CC(C)[C@@H](Nc1nc(Nc2ccc3ncccc3c2)c(C(N)=O)c(=O)[nH]1)C(N)=O [Example 20, (R)-2-(1-amino-3-methyl-1-oxobutan-2-ylamino)-6-oxo-4-(quinolin-6-ylamino)-1,6-dihydropyrimidine-5-carboxamide]

IC50 [nM]	SMILES
1 to 10	COCCOc1cccc(Nc2nc(N[C@H](CC(C)C)C(N)=O)[nH]c(=O)c2C(N)=O)c1 [Example 98, (R)-2-(1-amino-4-methyl-1-oxopentan-2-ylamino)-4-(3-(2-methoxyethoxy)phenylamino)-6-oxo-1,6-dihydropyrimidine-5-carboxamide]
1 to 10	CC(C)[C@@H](Nc1nc(Nc2ccc(-n3cccn3)cc2)c(C(N)=O)c(=O)[nH]1)C(N)=O [Example 19]
10 to 100	CNCCNc1nc(Nc2cccc(C)c2)c(C(N)=O)c(=O)[nH]1 [Example 14]
< 1	CC[C@@H](Nc1nc(Nc2cnc3ccccc3c2)c(C(N)=O)c(=O)[nH]1)C(N)=O [Example 109, (R)-2-(1-amino-1-oxobutan-2-ylamino)-6-oxo-4-(quinolin-3-ylamino)-1,6-dihydropyrimidine-5-carboxamide]
1 to 10	NC(=O)c1c(Nc2cccc(-c3ncccn3)c2)nc(N[C@@H]2CCCC[C@@H]2N)[nH]c1=O [Example 38]
10 to 100	CC[C@@H](Nc1nc(Nc2ccc3c(ccc[n+]3[O-])c2)c(C(N)=O)c(OC)n1)C(N)=O [Example 17, (R)-6-(2-(1-amino-1-oxobutan-2-ylamino)-5-carbamoyl-6-methoxypyrimidin-4-ylamino)quinoline 1-oxide]
< 1	NC(=O)c1c(Nc2cccc(-n3nccn3)c2)nc(N[C@@H]2CCCNC2)[nH]c1=O [Example 37]
1 to 10	NC(=O)c1c(Nc2cccc(-c3ccccn3)c2)nc(N[C@H](CC2CC2)C(N)=O)[nH]c1=O [Example 95, (R)-2-(1-amino-3-cyclopropyl-1-oxopropan-2-ylamino)-6-oxo-4-(3-(pyridin-2-yl)phenylamino)-1,6-dihydropyrimidine-5-carboxamide]
> 1000	CNC(=O)[C@@H](CC(C)C)Nc1nc(Nc2cccc(-c3ccccn3)c2)c(C(N)=O)c(=O)[nH]1 [Example 100, (R)-2-(4-methyl-1-(methylamino)-1-oxopentan-2-ylamino)-6-oxo-4-(3-(pyridin-2-yl)phenylamino)-1,6-dihydropyrimidine-5-carboxamide]
1 to 10	CC(C)C[C@@H](Nc1nc(Nc2cccc(-c3ncccn3)c2)c(C(N)=O)c(=O)[nH]1)C(N)=O [Example 27, (R)-2-(1-amino-4-methyl-1-oxopentan-2-ylamino)-6-oxo-4-(3-(pyrimidin-2-yl)phenylamino)-1,6-dihydropyrimidine-5-carboxamide]
10 to 100	CNC(=O)[C@@H](CC(C)C)Nc1nc(Nc2ccc3ncsc3c2)c(C(N)=O)c(=O)[nH]1 [Example 103, (R)-4-(benzo[d]thiazol-6-ylamino)-2-(4-methyl-1-(methylamino)-1-oxopentan-2-ylamino)-6-oxo-1,6-dihydropyrimidine-5-carboxamide]
> 1000	Cc1cc(C)cc(Nc2nc(N[C@H](C)C(N)=O)[nH]c(=O)c2C(N)=O)c1 [Example 56, (R)-2-(1-amino-1-oxopropan-2-ylamino)-4-(3,5-dimethylphenylamino)-6-oxo-1,6-dihydropyrimidine-5-carboxamide]
> 1000	COc1nc(Nc2ccc(N3CCOCC3)cc2)nc(NC2CC2)c1C(N)=O [Example 73, 4-(cyclopropylamino)-6-methoxy-2-(4-morpholinophenylamino)pyrimidine-5-carboxamide]
1 to 10	CC(C)C[C@@H](Nc1nc(Nc2ccc(OC(F)(F)F)cc2)c(C(N)=O)c(=O)[nH]1)C(N)=O [Example 91, (R)-2-(1-amino-4-methyl-1-oxopentan-2-ylamino)-4-(4-(trifluoromethoxy)phenylamino)-6-oxo-1,6-dihydropyrimidine-5-carboxamide]
100 to 1000	Cc1cccc(Nc2nc(Nc3ccc(S(N)(=O)=O)cc3)nc(O)c2C(N)=O)c1 [Example 63, 4-(4-(3-methylphenylamino)-5-carboxamide-6-oxo-1,6-dihydropyrimidin-2-ylamino)benzenesulfonamide]
> 1000	CCNc1nc(Nc2cccc(C)c2)c(C(N)=O)c(OCCCN)n1 [Example 52, 4-(m-toluidino)-6-(3-aminopropoxy)-2-(ethylamino)pyrimidine-5-carboxamide]
1 to 10	CC[C@@H](Nc1nc(Nc2cccc(-c3ccccn3)c2)c(C(N)=O)c(=O)[nH]1)C(N)=O [Example 41, (R)-2-(1-amino-1-oxobutan-2-ylamino)-6-oxo-4-(3-(pyridin-2-yl)phenylamino)-1,6-dihydropyrimidine-5-carboxamide]
> 1000	NC(=O)c1c(NC2CC2)nc(Nc2ccc(S(N)(=O)=O)cc2)[nH]c1=O [Example 44, 4-(cyclopropylamino)-6-oxo-2-(4-sulfamoylphenylamino)-1,6-dihydropyrimidine-5-carboxamide]

Reference: patent US20130317029A1 (PORTOLA PHARMACEUTICALS, INC., priority 2010, published 2013)
